According to the supplement of paper PMC10657565:
± gives the uncertainty stated by the source.

How the values were obtained:
Assay in all cases: relative cell viability vs DMSO control (% of DMSO control); higher = less growth inhibition (higher viability)
Conditions in all cases: treatment time: 72 h
BT-474 = test system: BT-474
Description: (§1)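 Breast cancer cell lines (BT-474, HCC1806, SUM-159, SKBR-3) were seeded in triplicate in 96-well plates and treated 24 h after seeding with kinase inhibitors at 8 doses (3 nM to 30 uM). After 72 h, viability was read by CellTiter-Glo luminescence. Values were averaged over replicates and normalised to DMSO-only (0.1%) controls on each plate to give relative viability (% of DMSO).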

HCC1806 = test system: HCC1806
Description: as §1

SKBR3 = test system: SKBR3
Description: as §1

SUM159 = test system: SUM159
Description: as §1

Row | SMILES | relative cell viability (BT-474; 0.003 µM) | relative cell viability (BT-474; 0.01 µM) | relative cell viability (BT-474; 0.03 µM) | relative cell viability (BT-474; 0.1 µM) | relative cell viability (BT-474; 0.3 µM) | relative cell viability (BT-474; 1 µM) | relative cell viability (BT-474; 3 µM) | relative cell viability (BT-474; 30 µM) | relative cell viability (HCC1806; 0.003 µM) | relative cell viability (HCC1806; 0.01 µM) | relative cell viability (HCC1806; 0.03 µM) | relative cell viability (HCC1806; 0.1 µM) | relative cell viability (HCC1806; 0.3 µM) | relative cell viability (HCC1806; 1 µM) | relative cell viability (HCC1806; 3 µM) | relative cell viability (HCC1806; 30 µM) | relative cell viability (SKBR3; 0.003 µM) | relative cell viability (SKBR3; 0.01 µM) | relative cell viability (SKBR3; 0.03 µM) | relative cell viability (SKBR3; 0.1 µM) | relative cell viability (SKBR3; 0.3 µM) | relative cell viability (SKBR3; 1 µM) | relative cell viability (SKBR3; 3 µM) | relative cell viability (SKBR3; 30 µM) | relative cell viability (SUM159; 0.003 µM) | relative cell viability (SUM159; 0.01 µM) | relative cell viability (SUM159; 0.03 µM) | relative cell viability (SUM159; 0.1 µM) | relative cell viability (SUM159; 0.3 µM) | relative cell viability (SUM159; 1 µM) | relative cell viability (SUM159; 3 µM) | relative cell viability (SUM159; 30 µM)
1 | COCCN1CCN(Cc2ccc(-c3n[nH]c4c3C(=O)c3c(NC(=O)NN5CCOCC5)cccc3-4)cc2)CC1 | 97.7 ± 4.1 | 86 ± 3.1 | 66.7 ± 7 | 64.5 ± 6.1 | 69.8 ± 8.4 | 70.8 ± 15 | 75.2 ± 7.9 | 11.2 ± 0.36 | 96.5 ± 1.7 | 83.3 ± 2.7 | 42.8 ± 16 | 11.7 ± 1.4 | 9.5 ± 1.1 | 9.2 ± 0.52 | 9.82 ± 0.46 | 2.82 ± 1.3 | 84.2 ± 3.5 | 71 ± 7.2 | 50 ± 7 | 18.1 ± 8.7 | 8.06 ± 0.7 | 7.43 ± 0.26 | 5.73 ± 0.075 | 0.827 ± 0.17 | 97.1 ± 6.1 | 60.4 ± 30 | 14.3 ± 16 | 7.11 ± 1 | 8.54 ± 0.38 | 9.97 ± 0.5 | 7.7 ± 0.38 | 0.538 ± 0.063
2 | COC(=O)[C@@]1(O)C[C@H]2O[C@]1(C)n1c3ccccc3c3c4c(c5c6ccccc6n2c5c31)C(=O)NC4 [K-252a] | 113 ± 7.6 | 106 ± 6.3 | 99.6 ± 7.7 | 91.6 ± 6.8 | 81.3 ± 4.5 | 58.9 ± 7.6 | 21.3 ± 4.6 | 1.44 ± 0.18 | 91.4 ± 5.5 | 81.8 ± 5.3 | 75.8 ± 6.2 | 62.3 ± 13 | 26.1 ± 8.3 | 13 ± 1.5 | 5.96 ± 2.1 | 0.762 ± 0.15 | 92.4 ± 4.2 | 90.4 ± 2 | 87.8 ± 4.2 | 81.8 ± 3.8 | 69.2 ± 4.8 | 54.3 ± 1.9 | 40 ± 2.8 | 1.88 ± 0.54 | 68.7 ± 6.9 | 63.8 ± 1.2 | 72.2 ± 3 | 34.7 ± 9.7 | 12.9 ± 2.6 | 6.47 ± 1.4 | 4.82 ± 0.85 | 2.12 ± 0.57
3 | COc1cc2ncnc(Nc3ccc(O)cc3)c2cc1OC [JANEX-1] | – | – | – | – | – | – | – | – | – | – | – | – | – | – | – | – | 106 ± 3.1 | 104.9 ± 0.48 | 107 ± 1.8 | 105 ± 3.3 | 104 ± 2.6 | 101 ± 5.9 | 100 ± 1.5 | 61.4 ± 2.9 | 101 ± 6.1 | 103 ± 1.8 | 104 ± 2.1 | 102 ± 3.1 | 97.9 ± 3.6 | 96.2 ± 4.1 | 92.5 ± 1.9 | 59.2 ± 2.8
